According to patent publication US10351547B2, “Somatostatin modulators and uses thereof” (priority 2016, dated 2019):

molecular target: human SSTR2 (Homo sapiens (Human), UniProt P30874); experiment: Human SSTR2 intracellular cAMP functional assay for agonists (HTRF); assay type: cell-based; conditions: not given
Description: Functional Assay for SSTR2 Agonists
General overview: All five SSTR subtypes are Gi coupled G-protein coupled receptors (GPCRs) that lead to decreases in intracellular cyclic AMP (cAMP) when activated by an agonist. […] Human SSTR2 intracellular cAMP assay is described below. The human SSTR1, 3, 4 and 5 assays follow the same protocol of SSTR2.
The cells are cultured at 37° C., 5% CO2 and 95% humidity. […] The cells are incubated for 20 minutes at 37° C. […] The cells are treated with 50 μL of lysis buffer (HRTF cAMP kit, Cisbio). […] The time-resolved fluorescent signal is read with a Tecan M1000Pro multiplate reader. The intracellular cAMP concentrations are calculated by regression to a standard curve and are plotted vs. the concentration of the compounds of the invention and the EC50 of the compounds are calculated using standard methods. All data manipulations are in GraphPad Prism v6.

Chain of human SSTR2 (P30874 whole entry): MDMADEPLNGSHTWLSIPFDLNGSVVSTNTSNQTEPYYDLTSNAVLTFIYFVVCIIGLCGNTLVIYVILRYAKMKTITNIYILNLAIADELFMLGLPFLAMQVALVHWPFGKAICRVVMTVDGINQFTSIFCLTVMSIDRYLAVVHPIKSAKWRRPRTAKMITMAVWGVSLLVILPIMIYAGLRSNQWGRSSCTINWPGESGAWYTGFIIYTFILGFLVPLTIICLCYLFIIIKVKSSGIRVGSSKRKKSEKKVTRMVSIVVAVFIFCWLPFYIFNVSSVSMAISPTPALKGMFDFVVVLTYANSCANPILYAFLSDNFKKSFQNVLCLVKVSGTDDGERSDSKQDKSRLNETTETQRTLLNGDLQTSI

Molecule | EC50 [nM]
N#Cc1cccc(-c2ccc3ncc(-c4cc(F)cc(OC5COC5)c4)c(N4CCC(N)CC4)c3c2)c1O [2-69, 3-[4-(4-aminopiperidin-1-yl)-3-[3-fluoro-5-(oxetan-3-yloxy)phenyl]quinolin-6-yl]-2-hydroxybenzonitrile] | 10 to 100
Cc1cc(F)cc(-c2cnc3ccc(-c4cc(F)cc(C#N)c4O)cc3c2N2CC(CNC3COC3)C2)c1 [2-33, 5-fluoro-3-[3-(3-fluoro-5-methylphenyl)-4-(3-{[(oxetan-3-yl)amino]methyl}azetidin-1-yl)quinolin-6-yl]-2-hydroxybenzonitrile] | 10 to 100
Cc1cc(F)cc(-c2ccc3nnc(-c4cc(F)cc(C(N)=O)c4)c(N4CCC(N)CC4)c3c2)c1 [1-15, 3-[4-(4-aminopiperidin-1-yl)-6-(3-fluoro-5-methylphenyl)cinnolin-3-yl]-5-fluorobenzamide] | 10 to 100
CO[C@@H]1CN(c2c(-c3cc(F)cc(F)c3)cnc3ccc(-c4cccc(C#N)c4O)cc23)CC[C@@H]1N [2-66, 3-{4-[(3R,4S)-4-amino-3-methoxypiperidin-1-yl]-3-(3,5-difluorophenyl)quinolin-6-yl}-2-hydroxybenzonitrile] | 10 to 100
Cc1cc(F)cc(-c2cnc3ccc(-c4cccc(C(=O)N5CCC5)c4O)cc3c2N2CCC(N)CC2)c1 [2-88, 2-[4-(4-aminopiperidin-1-yl)-3-(3-fluoro-5-methylphenyl)quinolin-6-yl] 6-(azetidine-1-carbonyl)phenol] | 10 to 100
CCN(CCO)CC1CN(c2c(-c3cc(C)cc(F)c3)cnc3ccc(-c4cc(F)cc(C#N)c4O)cc23)C1 [2-44, 3-[4-(3-{[ethyl(2-hydroxyethyl)amino]methyl}azetidin-1-yl)-3-(3-fluoro-5-methylphenyl)quinolin-6-yl]-5-fluoro-2-hydroxybenzonitrile] | 100 to 1000
N#Cc1cccc(-c2ccc3ncc(-c4cc(F)cc(F)c4)c(N4CCC(N)CC4)c3c2)c1OC1COC1 [2-73, 3-[4-(4-aminopiperidin-1-yl)-3-(3,5-difluorophenyl)quinolin-6-yl]-2-(oxetan-3-yloxy)benzonitrile] | 10 to 100
Cc1cc(Cl)cc(-c2cnc3ccc(-c4cccc(C#N)c4O)cc3c2N2CC(CN)C2)c1 [2-13, 3-{4-[3-(aminomethyl)azetidin-1-yl]-3-(3-chloro-5-methylphenyl)quinolin-6-yl}-2-hydroxybenzonitrile] | 10 to 100
Cc1cc(F)cc(-c2nnc3cc(Cl)c(-c4cccc5[nH]c(=O)[nH]c45)cc3c2N2CCC(N)CC2)c1 [1-9, 4-[4-(4-aminopiperidin-1-yl)-7-chloro-3-(3-fluoro-5-methylphenyl)cinnolin-6-yl]-2,3-dihydro-1H-1,3-benzodiazol-2-one] | 10 to 100

same assay, conditions: CHO-K1 cells stably expressing human SSTR2; NKH477-stimulated cAMP; read-out: EC50 (inhibition of cAMP activities via human SST2R)

Molecule | EC50 [nM]
Cc1cc(F)cc(-c2cnc3ccc(-c4cc(F)cc(C#N)c4O)cc3c2N2CC(CN)C2)c1 [2-17, 3-{4-[3-(aminomethyl)azetidin-1-yl]-3-(3-fluoro-5-methylphenyl)quinolin-6-yl}-5-fluoro-2-hydroxybenzonitrile] | 10 to 100
Cc1cc(F)cc(-c2cnc3ccc(-c4cc(F)cc(C#N)c4O)cc3c2N2CC(CNCCF)C2)c1 [2-24, 5-fluoro-3-[3-(3-fluoro-5-methylphenyl)-4-(3-{[(2-fluoroethyl)amino]methyl}azetidin-1-yl)quinolin-6-yl]-2-hydroxybenzonitrile] | < 10
3-[4-(4-aminopiperidin-1-yl)-7-chloro-3-(3,5-dichlorophenyl)cinnolin-6-yl]-5-fluoro-2-hydroxybenzonitrile [1-27] | < 10
CN(C)C(=O)[C@@H]1CN(c2c(-c3cc(F)cc(F)c3)cnc3ccc(-c4cccc(C#N)c4O)cc23)CC[C@H]1N (relative stereo) [2-151, trans-4-amino-1-[6-(3-cyano-2-hydroxyphenyl)-3-(3,5-difluorophenyl)quinolin-4-yl]-N,N-dimethylpiperidine-3-carboxamide] | 100 to 1000
Cc1cc(F)cc(-c2cnc3ccc(-c4cccc(F)c4/C=N/O)cc3c2N2CC[C@@H](N)[C@@H](O)C2)c1 (racemic) [2-227, cis-4-amino-1-(6-{3-fluoro-2-[(hydroxyimino)methyl]phenyl}-3-(3-fluoro-5-methylphenyl)quinolin-4-yl)piperidin-3-ol] | < 10
COCCOc1c(C#N)cc(F)cc1-c1ccc2ncc(-c3cc(F)cc(F)c3)c(N3CC[C@H](N)[C@H](O)C3)c2c1 (relative stereo) [2-232, cis-3-{4-[4-amino-3-hydroxypiperidin-1-yl]-3-(3,5-difluorophenyl)quinolin-6-yl}-5-fluoro-2-(2-methoxyethoxy)benzonitrile] | < 10
COCOc1c(C#N)cccc1-c1ccc2ncc(-c3cc(F)cc(F)c3)c(N3CCC(N)CC3)c2c1 [2-78, 3-[4-(4-aminopiperidin-1-yl)-3-(3,5-difluorophenyl)quinolin-6-yl]-2-(methoxymethoxy)benzonitrile] | < 10
COC(=O)Nc1c(F)cc(F)cc1-c1ccc2ncc(-c3cc(C)cc(F)c3)c(N3CC[C@@H](N)[C@H](OC)C3)c2c1 (relative stereo) [2-235, methyl N-(2-{4-[trans-4-amino-3-methoxypiperidin-1-yl]-3-(3-fluoro-5-methylphenyl)quinolin-6-yl}-4,6-difluorophenyl)carbamate] | < 10
Cc1cc(F)cc(-c2nnc3cc(Cl)c(-c4cc(F)cc(C(N)=O)c4)cc3c2N2CCC(N)CC2)c1 [1-4, 3-[4-(4-aminopiperidin-1-yl)-7-chloro-3-(3-fluoro-5-methylphenyl)cinnolin-6-yl]-5-fluorobenzamide] | < 10
Cn1ncc(-c2ccc3ncc(-c4cc(F)cc(F)c4)c(N4CC[C@H]5NCCO[C@@H]5C4)c3c2)c1C=NO (relative stereo) [2-253, N-[(4-{4-[trans-octahydro-1H-pyrido[3,4-b]morpholin-6-yl]-3-(3,5-difluorophenyl)quinolin-6-yl}-1-methyl-1H-pyrazol-5-yl)methylidene]hydroxylamine] | < 10
N#Cc1cnc(N2CCC2)c(-c2ccc3ncc(-c4cc(F)cc(F)c4)c(N4CCC(N)CC4)c3c2)c1 [2-75, 5-[4-(4-aminopiperidin-1-yl)-3-(3,5-difluorophenyl)quinolin-6-yl]-6-(azetidin-1-yl)pyridine-3-carbonitrile] | < 10
Cc1cc(F)cc(-c2cnc3ccc(-c4cccc(C#N)c4O)cc3c2N2CCC(N)CC2)c1 [2-1, 3-[4-(4-aminopiperidin-1-yl)-3-(3-fluoro-5-methylphenyl)quinolin-6-yl]-2-hydroxybenzonitrile] | < 10
COCCOc1c(C#N)cccc1-c1ccc2ncc(-c3cc(F)cc(F)c3)c(N3CC[C@H](N)[C@H](O)C3)c2c1 (relative stereo) [2-225, cis-3-{4-[4-amino-3-hydroxypiperidin-1-yl]-3-(3,5-difluorophenyl)quinolin-6-yl}-2-(2-methoxyethoxy)benzonitrile] | < 10
CO[C@@H]1CN(c2c(-c3cc(C)cc(F)c3)nnc3cc(Cl)c(-c4cc(F)cc(C(N)=O)c4)cc23)CC[C@H]1N (relative stereo) [1-10, 3-{4-[trans-4-amino-3-methoxypiperidin-1-yl]-7-chloro-3-(3-fluoro-5-methylphenyl)cinnolin-6-yl}-5-fluorobenzamide] | < 10
Cc1cc(F)cc(-c2cnc3ccc(-c4nccc(C#N)c4N)cc3c2N2CC(C3COCCN3)C2)c1 (stereo not shown) [2-282, 3-amino-2-[3-(3-fluoro-5-methylphenyl)-4-[3-(morpholin-3-yl)azetidin-1-yl]quinolin-6-yl]pyridine-4-carbonitrile] | < 10
N#Cc1cccc(-c2ccc3ncc(-c4cc(F)cc(F)c4)c(N4CC[C@@H](N)[C@H](F)C4)c3c2)c1O [2-59, 3-{4-[(3R,4R)-4-amino-3-fluoropiperidin-1-yl]-3-(3,5-difluorophenyl)quinolin-6-yl}-2-hydroxybenzonitrile] | < 10
N#Cc1cncc(-c2ccc3ncc(-c4cc(F)cc(F)c4)c(N4CCC(N)CC4)c3c2)c1N [2-177, 4-amino-5-[4-(4-aminopiperidin-1-yl)-3-(3,5-difluorophenyl)quinolin-6-yl]pyridine-3-carbonitrile] | < 10
NC1CCN(c2c(-c3cc(F)cc(F)c3)cnc3ccc(-c4ncccc4C=NO)cc23)CC1 [2-195, 1-[3-(3,5-difluorophenyl)-6-{3-[(hydroxyimino)methyl]pyridin-2-yl}quinolin-4-yl]piperidin-4-amine] | < 10
CCCNCC1CN(c2c(-c3cc(C)cc(F)c3)cnc3ccc(-c4c(F)ccc(F)c4O)cc23)C1 [2-46, 3,6-difluoro-2-[3-(3-fluoro-5-methylphenyl)-4-{3-[(propylamino)methyl]azetidin-1-yl}quinolin-6-yl]phenol] | < 10
COC(=O)Nc1c(C#N)cccc1-c1ccc2ncc(-c3cc(F)cc(F)c3)c(N3CCC(N)CC3)c2c1 [2-148, methyl N-{2-[4-(4-aminopiperidin-1-yl)-3-(3,5-difluorophenyl)quinolin-6-yl]-6-cyanophenyl}carbamate] | < 10
Cc1cc(F)cc(-c2nnc3cc(Cl)c(-c4cccc(C#N)c4O)cc3c2N2CCC(N)CC2)c1 [1-7, 3-[4-(4-aminopiperidin-1-yl)-7-chloro-3-(3-fluoro-5-methylphenyl)cinnolin-6-yl]-2-hydroxybenzonitrile] | < 10
COCCOc1c(C#N)cccc1-c1ccc2ncc(-c3cc(F)cc(F)c3)c(N3CCC(N)CC3)c2c1 [2-72, 3-[4-(4-aminopiperidin-1-yl)-3-(3,5-difluorophenyl)quinolin-6-yl]-2-(2-methoxyethoxy)benzonitrile] | < 10
